Source: patent US20260207628A1, “25-HYDROXY-CHOLEST-5-EN-3-SULFATE CHOLINE, FORMULATIONS THEREOF AND METHODS FOR PREPARING, AND USES OF SAME” (Durect Corporation, priority 2022, published 2026)
Where two headings read alike, the source gives them in different places.

What was measured:
[1] = Experimental: Four vials were prepared and stored at 2-8° C. or […] according to Table B2. The samples were scheduled initially to pull for testing at 3 weeks and 6 weeks time points.
For appearance, each unopened vial was visually examined for color, clumping, and flowability.
Samples were prepared by pipetting 20 mL of 100% methanol into each vial and mixing well, with sonication and vortexing to fully dissolve the samples for HPLC analysis.
HPLC analysis was performed.

[2] = remark: listed apart in the source
Experimental: The aqueous solvents were water, 5% dextrose, 0.9% sodium chloride, Fasted State Simulated Intestinal Fluid (FaSSIF), Fed State Simulated Intestinal Fluid (FeSSIF) and Fasted State Simulated Gastric Fluid (FaSSGF). The organic solvents were methanol, ethanol, isopropanol and acetonitrile.
These fluids were prepared per the instruction listed by Biorelevant (Biorelevant.com). Each buffer concentrate was diluted with water and mixed well. FaSSIF, FeSSIF, FaSSGF powder was added to each buffer and mixed to completely dissolve the powder. Buffers were stored at room temperature and used within 48 hours of preparation.
Aliquots of each solvent were added to each sample and vortexed for about one minute until excess solid remained. Samples were placed on shaker at room temperature with 210 motion per minute shaking.
After one day, samples were pulled and checked if excess solid was present. About 1.5 mL aliquot of each sample was centrifuged at 12000 rpm for 12 to 15 minutes. […] Aliquots of the top clear solution of each centrifuged sample in MeOH, EtOH, IPA and ACN were diluted with diluent (water:MeOH 95:5) and assayed by HPLC.
A linear standard curve was constructed using standards with concentration between 11 μg/mL to 1.5 mg/mL as free acid forcing the curve to origin. Solubilities are reported as mg/mL free acid 25HC3S. Detection limit (LOD) of the HPLC method was calculated as 0.0007 mg/mL.

[3] = Dynamic vapor sorption (DVS), sorption/desorption 5% to 95% RH; assay type: physicochemical
Text: Dynamic vapor sorption data was collected on a Surface Measurement System DVS Intrinsic instrument. The samples were not dried prior to analysis. […] Data were not corrected for the initial moisture content of the sample.

[4] = by compressibility index and Hausner ratio
Experimental: Although there are some variations in the method of determining the compressibility index and Hausner ratio, the basic procedure is to measure the unsettled apparent volume, VO, and the final tapped volume, Vf, of the powder after tapping the material until no further volume changes occur. The compressibility index and the Hausner ratio are calculated as follows: […]
Powder was carefully poured into a 5 mL glass graduated cylinder (to contain) until it was close to or at 5.0 mL. This initial volume was recorded as Vo. The graduated cylinder was tapped on a hard surface for 200 times and the volume was recorded. The cylinder was tapped 100 times more, and the final volume Vf was recorded.

[5] = Biorelevant drug release, USP Apparatus 2, 0-30 min FaSSGF then FaSSGF + double strength FaSSIF; assay type: physicochemical; conditions: at 90 minutes, biorelevant media
Experimental: Biorelevant media as used herein is a combination of 2 different media used at different times. The first is in FaSSGF which stands for Fasted-state simulated gastric fluid and is used for 30 minutes of drug release. Afterwards, drug release is measured with addition of double strength FaSSIF which is Fasted-state simulated intestinal fluid. A skilled artisan would understand that the double strength FaSSIF is added at 30 minutes.
As used herein, the biorelevant drug release was conducted using a USP Apparatus 2 with (1) 0-30 minutes in 450 mL FaSSGF; and (2) 30-90 minutes FaSSGF+double strength FaSSIF in a total of 900 mL of media with pH adjusted to 6.5; with a paddle speed of 75 rpm (0-75 minutes) and 250 rpm (75-90 minutes) and a vessel temperature of 37° C.

[6] = by angle of repose
Experimental: Angle of repose is measured as follows. Powder is poured from a funnel onto a flat surface until a cone of powder is created. The angle of repose is calculated according to the following equation:
[formula] • Where: • h: height of the cone (mm) • r: radius of the cone (mm)
The height of the cone was estimated with calipers.

[7] = after jet milling
Experimental: Crystalline 25HC3S was placed in a JAM-2-2002 mill under nitrogen and milled. The materials were then placed into product containers. Jet milling was conducted at a feed rate of 300 g/hour, with a venturi pressure of 50 psi and mill pressure of 120 psi of nitrogen. The target specification was set to having a Dv (90) of less than 10 microns.

[8] = Clinical study: safety and tolerability of oral doses of 25HC3S; assay type: in vivo, healthy male and female subjects
Text: The secondary objective for both Parts 1 and 2 of the study was: • To provide information on the safety and tolerability of oral doses of 25HC3S in healthy subjects
The evaluation of safety parameters comprised analysis of adverse events, laboratory variables (hematology, clinical chemistry and urinalysis), vital signs, electrocardiograms (ECGs) and physical examination findings.

With `C[C@H](CCCC(C)(C)O)[C@H]1CC[C@H]2[C@@H]3CC=C4C[C@@H](OS(=O)(=O)[O-])CC[C@]4(C)[C@H]3CC[C@]12C.C[N+](C)(C)CCO` [25HC3S choline, 25-hydroxy-3β-cholesten-5-en-3-sulfate (25HC3S) choline] the “% Impurities 25-HC (25-Hydroxy-Cholesterol)” value (“% Impurities 25-HC” below) ([1]; 2-8° C., 3 wk) was 0.2%, the “% Impurities SD (Sulfate Desmosterol)” value ([1]; 2-8° C., 3 wk) was 0.4% and the “% Impurities Total” value ([1]; 2-8° C., 3 wk) was 1.0%. The Appearance ([1]; 2-8° C., 3 wk) was “White, free flowing powder with clumping”, the Assay ([1]; 2-8° C., 3 wk) was 101.6 % w/w and the “% Impurities 25-HC” value ([1]; 2-8° C., 5 wk) was 0.2%. For the same compound, the “% Impurities SD (Sulfate Desmosterol)” value ([1]; 2-8° C., 5 wk) was 0.3%, the “% Impurities Total” value ([1]; 2-8° C., 5 wk) was 0.9% and the Appearance ([1]; 2-8° C., 5 wk) was “White, free flowing powder with clumping”. The Assay ([1]; 2-8° C., 5 wk) was 108.1 % w/w, the “% Impurities 25-HC” value ([1]; 80° C., 3 wk) was 0.4% and the “% Impurities SD (Sulfate Desmosterol)” value ([1]; 80° C., 3 wk) was 0.4%. The “% Impurities Total” value ([1]; 80° C., 3 wk) was 1.2%, the “% Recovery of 2-8° C./3 wk VS 80° C../3 wk” value ([1]; 80° C., 3 wk) was 100.8% and the Appearance ([1]; 80° C., 3 wk) was “White, free flowing powder with clumping”. For the same compound, the Assay ([1]; 80° C., 3 wk) was 102.4 % w/w, the “% Impurities 25-HC” value ([1]; 80° C., 5 wk) was 0.2% and the “% Impurities SD (Sulfate Desmosterol)” value ([1]; 80° C., 5 wk) was 0.8%. For the same compound, the “% Impurities Total” value ([1]; 80° C., 5 wk) was 2.2%, the “% Recovery of 2-8º C./5 wk VS 80° C./5 wk” value ([1]; 80° C., 5 wk) was 97.3% and the Appearance ([1]; 80° C., 5 wk) was “White, free flowing powder with clumping”. For the same compound, the Assay ([1]; 80° C., 5 wk) was 105.2 % w/w, the “Solubility in 0.9% Sodium Chloride” value [2] was “low solubility” and the “Solubility in 5% Dextrose” value [2] was 0.093 mg/mL as Free Acid. The “Solubility in ACN” value [2] was 0.5 mg/mL as Free Acid, the “Solubility in EtOH” value [2] was 3.4 mg/mL as Free Acid and the “Solubility in IPA” value [2] was 0.6 mg/mL as Free Acid. For the same compound, the “Solubility in MeOH” value [2] was 17.5 mg/mL as Free Acid, the “Solubility in Water” value [2] was 0.107 mg/mL as Free Acid and the “weight loss on the return to 5% relative humidity” value ([3]; DVS desorption 95% to 5% RH) was 0.5%. For the same compound, the “Scale of Flowability per USP<1174> (Flow Character)” value [4] was “Very, very poor (>38)”, the drug release [5] was ~ 10% and the “Flow Property per USP<1174> Powder Flow” value [6] was “Good (31-35)”.

In the case of `C[C@H](CCCC(C)(C)O)[C@H]1CC[C@H]2[C@@H]3CC=C4C[C@@H](OS(=O)(=O)[O-])CC[C@]4(C)[C@H]3CC[C@]12C.C[N+](C)(C)CCO` [Micronized 25HC3S choline], the “composite Dv (90)” value [7] is reported as 4 microns.

For `C[C@H](CCCC(C)(C)O)[C@H]1CCC2C3CC=C4C[C@@H](OS(=O)(=O)O)CC[C@]4(C)C3CC[C@@]21C` (stereo partly drawn) [Tablet 25HC3S, [(3S,10R,13R,17R)-17-[(1R)-5-hydroxy-1,5-dimethyl-hexyl]-10,13-dimethyl-2,3,4,7,8,9,11,12,14,15,16,17-dodecahydro-1H-cyclopenta[a]phenanthren-3-yl]sulfate], the “subjects reporting TEAEs, overall” value ([8]; 16 subjects, all TEAEs mild, not related to IMP) was 2 (12.5%), the “serious or severe TEAEs or deaths” value ([8]; all regimens) was “No serious, severe treatment-emergent adverse events (TEAEs) or deaths were reported” and the tolerability ([8]; choline salt IR formulations up to 50 mg fed and fasted, sodium salt PiB and choline salt PiB 12.5 mg fasted) was “well tolerated”. For the same compound, the “total number of TEAEs” value ([8]; overall) was 4.

For `C[C@H](CCCC(C)(C)O)[C@H]1CC[C@H]2[C@@H]3CC=C4C[C@@H](OS(=O)(=O)[O-])CC[C@]4(C)[C@H]3CC[C@]12C.[Na+]` [crystalline 25HC3S sodium, Sodium [(3S,10R,13R,17R)-17-[(1R)-5-hydroxy-1,5-dimethyl-hexyl]-10,13-dimethyl-2,3,4,7,8,9,11,12,14,15,16,17-dodecahydro-1H-cyclopenta[a]phenanthren-3-yl]sulfate, reference compound], the “water uptake (DVS isotherm, in words)” value ([3]; until about 95% relative humidity, batch containing Form I and Form II) was “significant water uptake”.
